Test results published in patent US11400063B2, “Early administration of low-dose colchicine after myocardial infarction” (INSTITUT DE CARDIOLOGIE DE MONTREAL, priority 2019, dated 2022).

Test system: patients recruited within 30 days after a myocardial infarction
Experiment: COLCOT randomized double-blind trial, efficacy end points, colchicine 0.5 mg once daily vs placebo
Type: in vivo, human
Protocol: We performed a randomized, double-blind trial involving patients recruited within 30 days after a myocardial infarction. The patients were randomly assigned to receive either low-dose colchicine (0.5 mg once daily) or placebo. A total of 4745 patients were enrolled; 2386 patients were assigned to the colchicine group, and 2379 to the placebo group. Patients were followed for a median of 22.6 months.
The primary efficacy end point was a composite of death from cardiovascular causes, resuscitated cardiac arrest, myocardial infarction (e.g., acute myocardial infraction or type II myocardial infarction), stroke, or urgent hospitalization for angina leading to coronary revascularization. The components of the primary end point and safety were also assessed.
COLCOT was an international multicenter, randomized, double-blinded trial that randomly assigned patients to receive either low-dose colchicine (0.5 mg once daily) or placebo. The study protocol and main results have been published (see, Tardif et al., N Engl J Med 2019). […] Main exclusion criteria were severe heart failure, reduced left ventricular ejection fraction (<35%), recent stroke (<3 months), type 2 MI, recent (<3 years) or planned coronary artery bypass graft (CABG), history of cancer (<3 years), and inflammatory bowel disease or chronic diarrhea. All patients enrolled in the trial benefited from percutaneous coronary intervention whenever indicated and guidelines-directed management of CV disease prior to randomization (see. Tardif et al., N Engl J Med 2019).
Clinical follow-up consisted of evaluations at 1 and 3 months after randomization and every 3 months thereafter. An independent clinical endpoint committee, blinded to trial-group assignment, adjudicated clinical endpoints. The trial was locally approved by the various institutional review boards, and all patients signed a written informed consent before enrollment.
The primary efficacy endpoint was a composite of CV death, resuscitated cardiac arrest, MI, stroke, or urgent hospitalization for angina requiring coronary revascularization. The secondary endpoints consisted of the components of the primary efficacy endpoint, all-cause death, and a composite of CV death, resuscitated cardiac arrest, MI, or stroke. Exploratory endpoints included all coronary revascularizations, including both elective and urgent coronary revascularizations.
The primary efficacy endpoint was a composite of cardiovascular death, MI, ischemic stroke, and urgent coronary revascularization. Secondary efficacy endpoints consisted of the components of the primary endpoint, composite of cardiovascular death, MI, and ischemic stroke, as well as deep vein thrombosis or pulmonary embolus, and atrial fibrillation (AF). To maximize consistency in pooling efficacy endpoints among trials, the primary and secondary composite efficacy and stroke endpoints in COLCOT were modified to meet the definition of primary and stroke endpoints of the LoDoCo2 trial. Therefore, adjudicated events of resuscitated cardiac arrest and non-ischemic stroke in COLCOT were excluded from the pooled primary endpoint. The component endpoint of stroke was also restricted to include only ischemic strokes. Incidence rates and hazards ratios (HRs) were calculated for the new primary composite endpoint and ischemic stroke endpoint using individual patient data from COLCOT.
The COLCOT trial was performed as follows. A randomized, double-blind trial involving patients recruited within 30 days after a myocardial infarction was performed. The patients were randomly assigned to receive either low-dose colchicine (0.5 mg once daily) or placebo. A total of 4745 patients were enrolled; 2386 patients were assigned to the colchicine group, and 2379 to the placebo group. […]

[1] = per-protocol population, colchicine vs placebo
[2] = subgroup History of diabetes: No
[3] = subgroup History of diabetes: Yes
[4] = subgroup History of hypertension: No
[5] = subgroup History of hypertension: Yes
[6] = subgroup Prior PCI or CABG: Yes
[7] = subgroup Prior stroke or TIA: No
[8] = subgroup Prior stroke or TIA: Yes
[9] = subgroup Smoking: Active smoker
[10] = subgroup Smoking: Previous smoker
[11] = subgroup White blood cell count: Above median
[12] = subgroup White blood cell count: Below median

COc1cc2c(c(OC)c1OC)-c1ccc(OC)c(=O)cc1[C@@H](NC(C)=O)CC2 [Colchicine, colchicine]
Resuscitated cardiac arrest, % of patients (per-protocol population): (0.2%) | Resuscitated cardiac arrest, no. of patients (per-protocol population): 5 no. | Stroke, % of patients (per-protocol population): (0.2%) | Stroke, no. of patients (per-protocol population): 5 no. | Urgent hospitalization for angina requiring revascularization, % of patients (per-protocol population): (1.0%) | Urgent hospitalization for angina requiring revascularization, no. of patients (per-protocol population): 22 no. | Primary endpoint, no. of patients (per-protocol population, N = 2260): 115 no. | MI, Hazard Ratio (95% CI) [1]: 0.84 (0.62-1.14) | Primary endpoint, Hazard Ratio (95% CI) [1]: 0.71 (0.56-0.90) | Resuscitated cardiac arrest, Hazard Ratio (95% CI) [1]: 1.00 (0.29-3.46) | Stroke, Hazard Ratio (95% CI) [1]: 0.26 (0.10-0.71) | Urgent hospitalization for angina requiring revascularization, Hazard Ratio (95% CI) [1]: 0.47 (0.28-0.78) | Primary efficacy composite endpoint, % of patients [2]: (4.8%) | Primary efficacy composite endpoint, Hazard ratio (95% CI) [2]: 0.85 (0.64; 1.13) | Primary efficacy composite endpoint, no. of patients with event/total no. of patients [2]: 91/1904 | Primary efficacy composite endpoint, % of patients [3]: (8.7%) | Primary efficacy composite endpoint, Hazard ratio (95% CI) [3]: 0.65 (0.44; 0.96) | Primary efficacy composite endpoint, no. of patients with event/total no. of patients [3]: 40/462 | Primary efficacy composite endpoint, % of patients [4]: (4.1%) | Primary efficacy composite endpoint, Hazard ratio (95% CI) [4]: 0.80 (0.54; 1.17) | Primary efficacy composite endpoint, no. of patients with event/total no. of patients [4]: 48/1181 | Primary efficacy composite endpoint, % of patients [5]: (7.0%) | Primary efficacy composite endpoint, Hazard ratio (95% CI) [5]: 0.76 (0.57; 1.01) | Primary efficacy composite endpoint, no. of patients with event/total no. of patients [5]: 83/1185 | Primary efficacy composite endpoint, % of patients (subgroup Prior MI: No): (4.3%) | Primary efficacy composite endpoint, Hazard ratio (95% CI) (subgroup Prior MI: No): 0.68 (0.51; 0.89) | Primary efficacy composite endpoint, no. of patients with event/total no. of patients (subgroup Prior MI: No): 85/1996 | Primary efficacy composite endpoint, % of patients (subgroup Prior MI: Yes): (12.4%) | Primary efficacy composite endpoint, Hazard ratio (95% CI) (subgroup Prior MI: Yes): 1.05 (0.70; 1.58) | Primary efficacy composite endpoint, no. of patients with event/total no. of patients (subgroup Prior MI: Yes): 46/370 | Primary efficacy composite endpoint, % of patients (subgroup Prior PCI or CABG: No): (4.3%) | Primary efficacy composite endpoint, Hazard ratio (95% CI) (subgroup Prior PCI or CABG: No): 0.72 (0.54; 0.95) | Primary efficacy composite endpoint, no. of patients with event/total no. of patients (subgroup Prior PCI or CABG: No): 83/1947 | Primary efficacy composite endpoint, % of patients [6]: (11.5%) | Primary efficacy composite endpoint, Hazard ratio (95% CI) [6]: 0.91 (0.62; 1.34) | Primary efficacy composite endpoint, no. of patients with event/total no. of patients [6]: 48/419 | Primary efficacy composite endpoint, % of patients [7]: (5.3%) | Primary efficacy composite endpoint, Hazard ratio (95% CI) [7]: 0.76 (0.60; 0.96) | Primary efficacy composite endpoint, no. of patients with event/total no. of patients [7]: 123/2311 | Primary efficacy composite endpoint, % of patients [8]: (14.5%) | Primary efficacy composite endpoint, Hazard ratio (95% CI) [8]: 1.09 (0.42; 2.82) | Primary efficacy composite endpoint, no. of patients with event/total no. of patients [8]: 8/55 | Primary efficacy composite endpoint, % of patients (subgroup Sex: Female): (7.8%) | Primary efficacy composite endpoint, Hazard ratio (95% CI) (subgroup Sex: Female): 0.99 (0.63; 1.58) | Primary efficacy composite endpoint, no. of patients with event/total no. of patients (subgroup Sex: Female): 37/472 | Primary efficacy composite endpoint, % of patients (subgroup Sex: Male): (5.0%) | Primary efficacy composite endpoint, Hazard ratio (95% CI) (subgroup Sex: Male): 0.70 (0.54; 0.91) | Primary efficacy composite endpoint, no. of patients with event/total no. of patients (subgroup Sex: Male): 94/1894 | Primary efficacy composite endpoint, % of patients [9]: (5.4%) | Primary efficacy composite endpoint, Hazard ratio (95% CI) [9]: 0.93 (0.60; 1.44) | Primary efficacy composite endpoint, no. of patients with event/total no. of patients [9]: 38/708 | Primary efficacy composite endpoint, % of patients (subgroup Smoking: Non-smoker): (6.0%) | Primary efficacy composite endpoint, Hazard ratio (95% CI) (subgroup Smoking: Non-smoker): 0.90 (0.61; 1.34) | Primary efficacy composite endpoint, no. of patients with event/total no. of patients (subgroup Smoking: Non-smoker): 47/787 | Primary efficacy composite endpoint, % of patients [10]: (5.3%) | Primary efficacy composite endpoint, Hazard ratio (95% CI) [10]: 0.59 (0.41; 0.85) | Primary efficacy composite endpoint, no. of patients with event/total no. of patients [10]: 46/871 | Primary efficacy composite endpoint, % of patients [11]: (5.3%) | Primary efficacy composite endpoint, Hazard ratio (95% CI) [11]: 0.80 (0.51; 1.25) | Primary efficacy composite endpoint, no. of patients with event/total no. of patients (subgroup White blood cell count: Above median (8.64 × 10^3/μL)): 34/637 | Primary efficacy composite endpoint, % of patients [12]: (6.2%) | Primary efficacy composite endpoint, Hazard ratio (95% CI) [12]: 0.85 (0.56; 1.29) | Primary efficacy composite endpoint, no. of patients with event/total no. of patients (subgroup White blood cell count: Below median (8.64 × 10^3/μL)): 41/660
